Test results published in the supplement of paper PMC10307832.

What was measured:
BI-2536 = compound: CC[C@@H]1C(=O)N(C)c2cnc(Nc3ccc(C(=O)NC4CCN(C)CC4)cc3OC)nc2N1C1CCCC1 [BI-2536]; assay: relative viability (nuclei count vs DMSO), 5 days (fraction); higher = more cells survive
Summary of the method: (§1)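 Following overnight incubation at 37 °C, lung cancer cell lines in 1536-well plates were pinned with five library-drug doses (not always all listed) in √10 steps on vehicle-anchored plates. The cells then spent 5 days without medium change before a combined fix, permeabilisation and Hoechst stain, 4× imaging and MetaXpress nuclear counts. Viability is the treated-to-vehicle ratio of nuclei, taken as the median across plates. Only plates with control CV below 25% and at least one doubling passed.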

NPK76-II-72-1 = compound: CC1CC(=O)N(C2=CN=C(N=C2N1C3CCCC3)NC4=C(C=C(C=C4)C(=O)NC5CCN(CC5)C)OC)C [NPK76-II-72-1]; assay: as above
Summary of the method: as §1

Cell Line	relative viability (BI-2536; 0.01 µM)	relative viability (BI-2536; 0.03162 µM)	relative viability (BI-2536; 0.1 µM)	relative viability (BI-2536; 0.3162 µM)	relative viability (BI-2536; 1 µM)	relative viability (NPK76-II-72-1; 0.01 µM)	relative viability (NPK76-II-72-1; 0.03162 µM)	relative viability (NPK76-II-72-1; 0.1 µM)	relative viability (NPK76-II-72-1; 0.3162 µM)	relative viability (NPK76-II-72-1; 1 µM)
NCI-H460	1.05	1.03	0.552	0.0431	0.0258	0.98	1.04	1.02	0.983	0.992
NCI-H520	0.902	0.737	0.61	0.238	0.225	0.869	1.03	0.991	1.03	0.947
NCI-H522	0.862	0.969	0.639	0.374	0.332	0.922	0.821	0.892	0.929	1.1
NCI-H596	0.963	1.11	0.747	0.402	0.286	0.99	0.97	1.02	1.02	1.01
NCI-H647	0.925	0.874	0.161	0.0642	0.0923	0.886	0.971	1.01	1.03	1.06
NCI-H650	0.819	0.821	0.589	0.198	0.131	0.971	0.946	0.927	0.734	1.01
NCI-H661	1.02	0.95	0.503	0.327	0.334	0.966	1.01	0.97	0.794	1.01
NCI-H727	1.02	0.998	0.764	0.512	0.31	0.882	1.03	0.836	1.02	0.976
NCI-H838	0.99	0.946	0.826	0.164	0.162	0.912	1.03	0.954	0.959	1.02
NCI-H1299	0.968	1.05	0.924	0.291	0.266	1	1.03	1.01	1.01	1.02
NCI-H1355	1.01	0.958	0.638	0.174	0.163	0.933	0.976	0.987	0.92	1.02
NCI-H1395	0.844	0.817	0.435	0.337	0.34	0.893	0.906	0.953	0.955	0.993
NCI-H1437	0.981	0.911	0.804	0.184	0.174	0.981	0.972	0.952	0.964	1.01
NCI-H1563	0.985	1.16	0.924	0.733	0.573	0.949	0.978	1	0.94	0.982
NCI-H1623	0.956	0.91	0.852	0.462	0.28	0.919	0.953	0.901	0.852	0.932
NCI-H1648	0.98	0.826	0.63	0.301	0.267	0.861	0.943	0.537	0.719	0.773
NCI-H1650	0.889	0.801	0.219	0.14	0.143	0.86	0.993	0.929	0.891	0.996

Cell Line	relative viability (BI-2536; 0.01 µM)	relative viability (BI-2536; 0.03162 µM)	relative viability (BI-2536; 0.1 µM)	relative viability (BI-2536; 0.3162 µM)	relative viability (BI-2536; 1 µM)	relative viability (NPK76-II-72-1; 0.01 µM)	relative viability (NPK76-II-72-1; 0.03162 µM)	relative viability (NPK76-II-72-1; 0.1 µM)	relative viability (NPK76-II-72-1; 0.3162 µM)	relative viability (NPK76-II-72-1; 1 µM)
NCI-H1651	0.961	0.947	0.915	0.3	0.109	0.953	0.939	0.925	0.979	1.02
NCI-H1666	0.945	0.959	0.9	0.466	0.377	0.957	0.992	0.959	0.845	1.11
NCI-H1703	0.896	0.614	0.525	0.158	0.131	0.842	1.07	0.935	0.979	1.27
NCI-H1734	1.01	0.725	0.234	0.199	0.211	0.926	1.03	1	0.967	1.1
NCI-H1755	0.994	0.974	0.695	0.332	0.291	0.97	0.998	1	0.979	1.02
NCI-H1792	1.03	0.851	0.416	0.168	0.114	0.874	0.895	0.906	0.857	1.04
NCI-H1793	0.912	0.816	0.314	0.161	0.196	0.76	1.06	1.15	0.741	0.915
NCI-H1915	0.977	0.932	0.544	0.0978	0.117	0.984	1.1	1	0.882	0.996
NCI-H1944	0.902	1.07	0.649	0.203	0.194	0.931	0.974	0.92	0.921	1.08
NCI-H1975	0.859	0.975	0.612	0.207	0.159	0.963	0.942	0.954	0.931	1.02
NCI-H1993	1.04	0.793	0.543	0.684	0.587	0.827	0.981	0.942	0.89	1.09
NCI-H2009	0.959	0.918	0.579	0.198	0.209	0.98	1.05	1	0.933	1.1
NCI-H2023	0.954	0.909	0.266	0.0935	0.11	0.904	1.05	1.07	0.941	0.96
NCI-H2085	1.01	0.976	0.798	0.222	0.333	0.921	1.02	0.961	0.952	1
NCI-H2087	1.11	1.06	0.607	0.105	0.133	0.98	1.03	0.868	0.889	1.05
NCI-H2126	1.02	0.991	0.656	0.314	0.245	0.966	1.06	0.999	0.996	1.09
